In PubChem BioAssay AID2060894 (Molecular Pharmacology Branch, DTP, NCI, 2025):

Test system: K12877-001-R-J1-PDC complex spheroid viability
Test: Anticancer human tumor K12877-001-R-J1-PDC patient-derived lung adenocarcinoma cell line growth inhibition [RAS]
Settings: for viability, T/C: stronger effect = lower value
Method in brief: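 Multi-cell-type spheroids: tumor cells plus HUVEC endothelial cells and mesenchymal stem cells. RAS-pathway inhibitors were combined with targeted agents, each dosed in half-log steps down from clinical Cmax, or from 10 microM when Cmax was unknown.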
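Further: spheroids exposed to agents for one week before readout.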
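Wherever viability, T/C is given: tumour cells co-cultured with HUVEC and mesenchymal stem cells in spheroids.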

## CC1(C)CCC(Nc2ncc(C(F)(F)F)c(-c3c[nH]c4c(P(C)(C)=O)c(C#N)ccc34)n2)CN1 (centres undefined) + CCn1c(-c2cccnc2C(C)OC)c2c3cc(ccc31)N1CCOC(CC(NC(=O)C(C(C)C)N(C)C(=O)C3(F)CCN(C(=O)C#CC(C)(C)N(C)C)CC3)C(=O)N3CCCC(N3)C(=O)OCC(C)(C)C2)C1
Curve of first compound, second compound 0.000949 µM
  IC50: 16.8 nM
Curve of first compound, second compound 0.003 µM
  IC50: 15.1 nM
Curve of first compound, second compound 0.00949 µM
  IC50: 13.2 nM
Curve of first compound, second compound 0.03 µM
  IC50: 15.9 nM
Curve of first compound, second compound 0.0949 µM
  IC50: 13.8 nM
Curve of first compound, second compound 0.3 µM
  IC50: 11 nM
Second compound 0.000949 µM, first compound 0.000949 µM
  viability, T/C: 88.3%
Second compound 0.000949 µM, first compound 0.003 µM
  viability, T/C: 79%
Second compound 0.000949 µM, first compound 0.00949 µM
  viability, T/C: 63.7%
Second compound 0.000949 µM, first compound 0.03 µM
  viability, T/C: 36.4%
Second compound 0.000949 µM, first compound 0.0949 µM
  viability, T/C: 24.2%
Second compound 0.000949 µM, first compound 0.3 µM
  viability, T/C: 18.5%
Second compound 0.003 µM, first compound 0.000949 µM
  viability, T/C: 80.2%
Second compound 0.003 µM, first compound 0.003 µM
  viability, T/C: 81%
Second compound 0.003 µM, first compound 0.00949 µM
  viability, T/C: 57.8%
Second compound 0.003 µM, first compound 0.03 µM
  viability, T/C: 35.9%
Second compound 0.003 µM, first compound 0.0949 µM
  viability, T/C: 24.9%
Second compound 0.003 µM, first compound 0.3 µM
  viability, T/C: 18%
Second compound 0.00949 µM, first compound 0.000949 µM
  viability, T/C: 74.1%
Second compound 0.00949 µM, first compound 0.003 µM
  viability, T/C: 71.8%
Second compound 0.00949 µM, first compound 0.00949 µM
  viability, T/C: 55.3%
Second compound 0.00949 µM, first compound 0.03 µM
  viability, T/C: 35.1%
Second compound 0.00949 µM, first compound 0.0949 µM
  viability, T/C: 22.7%
Second compound 0.00949 µM, first compound 0.3 µM
  viability, T/C: 17.1%
Second compound 0.03 µM, first compound 0.000949 µM
  viability, T/C: 74.7%
Second compound 0.03 µM, first compound 0.003 µM
  viability, T/C: 73.7%
Second compound 0.03 µM, first compound 0.00949 µM
  viability, T/C: 63.8%
Second compound 0.03 µM, first compound 0.03 µM
  viability, T/C: 33%
Second compound 0.03 µM, first compound 0.0949 µM
  viability, T/C: 20.9%
Second compound 0.03 µM, first compound 0.3 µM
  viability, T/C: 19%
Second compound 0.0949 µM, first compound 0.000949 µM
  viability, T/C: 72.8%
Second compound 0.0949 µM, first compound 0.003 µM
  viability, T/C: 66.1%
Second compound 0.0949 µM, first compound 0.00949 µM
  viability, T/C: 58.4%
Second compound 0.0949 µM, first compound 0.03 µM
  viability, T/C: 34.7%
Second compound 0.0949 µM, first compound 0.0949 µM
  viability, T/C: 21.8%
Second compound 0.0949 µM, first compound 0.3 µM
  viability, T/C: 18%
Second compound 0.3 µM, first compound 0.000949 µM
  viability, T/C: 69.1%
Second compound 0.3 µM, first compound 0.003 µM
  viability, T/C: 63.7%
Second compound 0.3 µM, first compound 0.00949 µM
  viability, T/C: 53.9%
Second compound 0.3 µM, first compound 0.03 µM
  viability, T/C: 29.6%
Second compound 0.3 µM, first compound 0.0949 µM
  viability, T/C: 19%
Second compound 0.3 µM, first compound 0.3 µM
  viability, T/C: 14.8%

## Cc1nc(N2CCC3(CC2)COC(C)C3N)c(CO)nc1Sc1ccnc(N)c1Cl (centres undefined)
Compound 0.1 µM
  viability, T/C: 92.8% [middle of 4 runs]
Compound 0.316 µM
  viability, T/C: 92.2% [middle of 4 runs]
Compound 1 µM
  viability, T/C: 93.8% [middle of 4 runs]
Compound 10 µM
  viability, T/C: 79.5% [middle of 4 runs]
Curve of compound
  IC50: > 10000 nM

## CC(=O)OC12COC1CC(O)C1(C)C(=O)C(O)C3=C(C)C(OC(=O)C(O)C(NC(=O)OC(C)(C)C)c4ccccc4)CC(O)(C(OC(=O)c4ccccc4)C21)C3(C)C (centres undefined) + C#Cc1c(F)ccc2cc(O)cc(-c3ncc4c(N5CC6CCC(C5)N6)nc(OCC56CCCN5CC(F)C6)nc4c3F)c12
Curve of first compound, second compound 0.0316 µM
  IC50: < 31.6 nM
Curve of first compound, second compound 0.1 µM
  IC50: < 31.6 nM
Curve of first compound, second compound 0.316 µM
  IC50: < 31.6 nM
Curve of first compound, second compound 1 µM
  IC50: < 31.6 nM
Curve of first compound, second compound 3.16 µM
  IC50: < 31.6 nM
Curve of first compound, second compound 10 µM
  IC50: < 31.6 nM
Second compound 0.0316 µM, first compound 0.0316 µM
  viability, T/C: 8.75%
Second compound 0.0316 µM, first compound 0.1 µM
  viability, T/C: 6.43%
Second compound 0.0316 µM, first compound 0.316 µM
  viability, T/C: 6.63%
Second compound 0.0316 µM, first compound 1 µM
  viability, T/C: 5.48%
Second compound 0.0316 µM, first compound 3.16 µM
  viability, T/C: 7.34%
Second compound 0.0316 µM, first compound 10 µM
  viability, T/C: 14.9%
Second compound 0.1 µM, first compound 0.0316 µM
  viability, T/C: 8.48%
Second compound 0.1 µM, first compound 0.1 µM
  viability, T/C: 6.66%
Second compound 0.1 µM, first compound 0.316 µM
  viability, T/C: 4.24%
Second compound 0.1 µM, first compound 1 µM
  viability, T/C: 5.34%
Second compound 0.1 µM, first compound 3.16 µM
  viability, T/C: 6.17%
Second compound 0.1 µM, first compound 10 µM
  viability, T/C: 16%
Second compound 0.316 µM, first compound 0.0316 µM
  viability, T/C: 9.56%
Second compound 0.316 µM, first compound 0.1 µM
  viability, T/C: 6.37%
Second compound 0.316 µM, first compound 0.316 µM
  viability, T/C: 5.39%
Second compound 0.316 µM, first compound 1 µM
  viability, T/C: 5.34%
Second compound 0.316 µM, first compound 3.16 µM
  viability, T/C: 6.63%
Second compound 0.316 µM, first compound 10 µM
  viability, T/C: 17.3%
Second compound 1 µM, first compound 0.0316 µM
  viability, T/C: 8.81%
Second compound 1 µM, first compound 0.1 µM
  viability, T/C: 6.46%
Second compound 1 µM, first compound 0.316 µM
  viability, T/C: 6.04%
Second compound 1 µM, first compound 1 µM
  viability, T/C: 5.11%
Second compound 1 µM, first compound 3.16 µM
  viability, T/C: 7.06%
Second compound 1 µM, first compound 10 µM
  viability, T/C: 18.1%
Second compound 3.16 µM, first compound 0.0316 µM
  viability, T/C: 7.54%
Second compound 3.16 µM, first compound 0.1 µM
  viability, T/C: 5.83%
Second compound 3.16 µM, first compound 0.316 µM
  viability, T/C: 4.07%
Second compound 3.16 µM, first compound 1 µM
  viability, T/C: 4.99%
Second compound 3.16 µM, first compound 3.16 µM
  viability, T/C: 6.13%
Second compound 3.16 µM, first compound 10 µM
  viability, T/C: 15.7%
Second compound 10 µM, first compound 0.0316 µM
  viability, T/C: 5.58%
Second compound 10 µM, first compound 0.1 µM
  viability, T/C: 3.71%
Second compound 10 µM, first compound 0.316 µM
  viability, T/C: 4.04%
Second compound 10 µM, first compound 1 µM
  viability, T/C: 4.11%
Second compound 10 µM, first compound 3.16 µM
  viability, T/C: 5.73%
Second compound 10 µM, first compound 10 µM
  viability, T/C: 15.2%
